Measurements reported in patent publication US11053260B2, “Tri-cycle compound and applications thereof” (FUJIAN COSUNTER PHARMACEUTICAL CO., LTD., priority 2017, dated 2021).

Tested on: HBV
Test: HBV in vitro test in quantitative qPCR assay (HBV DNA content in HepG2.2.15 cells)
Assay type: cell-based
Conditions: Hepatitis B virus, HepG2.2.15, 192 h, HBV DNA by qPCR, day 8, read-out: 50% inhibitory concentration (EC50) value of HBV
Description: HBV In Vitro Test in Quantitative qPCR Assay
The HBV DNA content in HepG2.2.15 cells was determined by real-time quantitative qPCR assay (real time-qPCR), and the inhibitory effect of the compound on HBV was evaluated by the EC50 value of the compound.
2.1 Cell line: HepG2.2.15 cells
3.1 HepG2.2.15 cells (4×10^4 cells/well) were seeded into a 96-well plate and incubated overnight at 37° C. under 5% CO2.
3.2 On the 2nd day, the compound was diluted into 8 concentrations with 3-time gradient. The compounds with different concentrations were added into the culture wells in duplicate wells. The final concentration of DMSO in the culture medium was 1%. 1 μM GLS4 was used as a 100% inhibition control, and 1% DMSO was used as a 0% inhibition control.
3.3 On the 5th day, the culture medium was replaced with a fresh medium containing the compound.
3.4 On the 8th day, the culture medium in the culture well was collected, and the DNA was extracted with a high-throughput DNA purification kit (Qiagen-51162), of which specific procedure was referred to the product specification.
3.6 15 μL of the reaction mixture was added into each well of a 96-well PCR plate, followed by addition of 10 μL of sample DNA or HBV DNA standards into each well.
3.7 PCR reaction conditions: heating at 95° C. for 10 minutes; then denaturation at 95° C. for 15 seconds, extension at 60° C. for 1 minute, a total of 40 cycles.
3.8.1 Calculation of the percentage of inhibition: % Inh.=[1−(DNA copy number in sample−DNA copy number in 1 μM GLS4)/(DNA copy number in DMSO control−DNA copy number in 1 μM GLS4)]×100
3.8.2 Calculation of EC50: The 50% inhibitory concentration (EC50) value of the compound on HBV was calculated by GraphPad Prism software.

| Compound | EC50 |
| --- | --- |
| O=C(NCCC1CCCO1)c1ccc2c(c1)NC(=O)c1cc(Cl)cn1S2(=O)=O (centres unmarked) [WX143] | ≤ 0.1 µM |
| CC(C)c1ncc(CNC(=O)c2ccc3c(c2)NC(=O)c2c(Cl)ccn2S3(=O)=O)s1 [WX145] | 0.1 to 0.5 µM |
| CC(C)(C)OC(=O)N1CC2C(C1)C2NC(=O)c1ccc2c(c1)NC(=O)c1cccn1S2(=O)=O (centres unmarked) [WX146] | 1 to 10 µM |
| COCCCNC(=O)c1ccc2c(c1)NC(=O)c1cccn1S2(=O)=O [WX175] | 0.1 to 0.5 µM |
| O=C(NCc1ccccn1)c1ccc2c(c1)NC(=O)c1cccn1S2(=O)=O [WX176] | 1 to 10 µM |
| O=C(NCCC1CCCC1)c1ccc2c(c1)NC(=O)c1cccn1S2(=O)=O [WX184] | 0.1 to 0.5 µM |
| CCc1cc2n(c1)S(=O)(=O)c1ccc(C(=O)NCCC3CCCO3)cc1NC2=O (centres unmarked) [WX185] | ≤ 0.1 µM |
| Cc1cc2n(c1)S(=O)(=O)c1ccc(C(=O)NCCC3CCCO3)cc1NC2=O (centres unmarked) [WX186] | ≤ 0.1 µM |
| O=C(NCCCC(F)(F)F)c1ccc2c(c1)NC(=O)c1cccn1S2(=O)=O [WX187] | 0.1 to 0.5 µM |
| O=C(NCc1ccc(F)cc1)c1ccc2c(c1)NC(=O)c1cccn1S2(=O)=O [WX189] | 0.1 to 0.5 µM |
| CS(=O)(=O)CCCNC(=O)c1ccc2c(c1)NC(=O)c1cccn1S2(=O)=O [WX190] | 0.5 to 1 µM |
| CC(C)(C)OC(=O)N1CC(NC(=O)c2ccc3c(c2)NC(=O)c2cccn2S3(=O)=O)C1 [WX195] | 0.5 to 1 µM |
| CC(C)(C)OC(=O)N1CC(CNC(=O)c2ccc3c(c2)NC(=O)c2cccn2S3(=O)=O)C1 [WX196] | ≤ 0.1 µM |
| CC(C)(C)OC(=O)N1CCC(CCNC(=O)c2ccc3c(c2)NC(=O)c2cccn2S3(=O)=O)CC1 [WX197] | 0.1 to 0.5 µM |
| CC(C)(C)OC(=O)N1CCCC1CNC(=O)c1ccc2c(c1)NC(=O)c1cccn1S2(=O)=O (centres unmarked) [WX198] | 0.1 to 0.5 µM |
| CC(C)(C)OC(=O)N1CCC(CNC(=O)c2ccc3c(c2)NC(=O)c2cccn2S3(=O)=O)CC1 [WX200] | ≤ 0.1 µM |
| COC(=O)N1CC(NC(=O)c2ccc3c(c2)NC(=O)c2cccn2S3(=O)=O)C1 [WX201] | 0.5 to 1 µM |
| O=C(NCCc1cnco1)c1ccc2c(c1)NC(=O)c1cccn1S2(=O)=O [WX206] | 0.1 to 0.5 µM |
| O=C(NCCN1CCCC1=O)c1ccc2c(c1)NC(=O)c1cccn1S2(=O)=O [WX208] | 0.5 to 1 µM |

| Compound | EC50 |
| --- | --- |
| O=C(NCCn1ccccc1=O)c1ccc2c(c1)NC(=O)c1cccn1S2(=O)=O [WX211] | 0.5 to 1 µM |
| O=C(NCCC1CCCCC1)c1ccc2c(c1)NC(=O)c1cccn1S2(=O)=O [WX215] | 0.1 to 0.5 µM |
| O=C(NCCc1ccc(F)cc1)c1ccc2c(c1)NC(=O)c1cccn1S2(=O)=O [WX216] | ≤ 0.1 µM |
| COc1ccc(CCNC(=O)c2ccc3c(c2)NC(=O)c2cccn2S3(=O)=O)cc1 [WX217] | ≤ 0.1 µM |
| O=C(NCCc1ccccc1)c1ccc2c(c1)NC(=O)c1cccn1S2(=O)=O [WX218] | ≤ 0.1 µM |
| CSCCNC(=O)c1ccc2c(c1)NC(=O)c1cccn1S2(=O)=O [WX219] | ≤ 0.1 µM |
| O=C(NCc1cccnc1)c1ccc2c(c1)NC(=O)c1cccn1S2(=O)=O [WX220] | ≤ 0.1 µM |
| COC1(CCNC(=O)c2ccc3c(c2)NC(=O)c2cccn2S3(=O)=O)CC1 [WX223] | 0.5 to 1 µM |
| O=C(NCCC1CCC(F)(F)CC1)c1ccc2c(c1)NC(=O)c1cccn1S2(=O)=O [WX225] | 0.1 to 0.5 µM |
| O=C(NCCN1CCCS1(=O)=O)c1ccc2c(c1)NC(=O)c1cccn1S2(=O)=O [WX226] | 0.5 to 1 µM |
| O=C(NCc1cccc(OC(F)(F)F)c1)c1ccc2c(c1)NC(=O)c1cccn1S2(=O)=O [WX227] | 0.1 to 0.5 µM |
| O=C(NCc1ccncc1)c1ccc2c(c1)NC(=O)c1cccn1S2(=O)=O [WX228] | 0.1 to 0.5 µM |
| O=C(NCCc1ccccn1)c1ccc2c(c1)NC(=O)c1cccn1S2(=O)=O [WX229] | 0.1 to 0.5 µM |
| O=C(NCCC(F)(F)F)c1ccc2c(c1)NC(=O)c1cccn1S2(=O)=O [WX230] | 0.1 to 0.5 µM |
| O=C(NCc1cncnc1)c1ccc2c(c1)NC(=O)c1cccn1S2(=O)=O [WX231] | 0.1 to 0.5 µM |
| CS(=O)(=O)N1CC(NC(=O)c2ccc3c(c2)NC(=O)c2cccn2S3(=O)=O)C1 [WX232] | 0.5 to 1 µM |
| CN(C)c1ncc(CNC(=O)c2ccc3c(c2)NC(=O)c2cccn2S3(=O)=O)s1 [WX233] | ≤ 0.1 µM |
| O=C(NCc1ccc(C(F)(F)F)cc1)c1ccc2c(c1)NC(=O)c1cccn1S2(=O)=O [WX235] | 0.1 to 0.5 µM |
| O=C(NCCc1cccc(F)c1)c1ccc2c(c1)NC(=O)c1cccn1S2(=O)=O [WX237] | ≤ 0.1 µM |
